Results: patent publication US12673954B2 (BRISTOL-MYERS SQUIBB COMPANY, priority 2021, dated 2026)
Where two headings read alike, the source gives them in different places.

Experiments:
[1] = tested on: IRF pathway, THP1-Dual™ cells; experiment: STING reporter assay in THP1-Dual cells, IRF pathway (Lucia luciferase, QUANTI-Luc); assay type: cell-based, human; conditions: read-out: IRF (EC50 μM)
Procedure, shortened: (§1)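 THP-1-derived dual-reporter cells treated with serially diluted compounds (final top concentration 100 μM) for 20 h at 37° C. NF-κB read as SEAP via QUANTI-Blue at OD620; IRF read as Lucia luminescence via QUANTI-Luc after 5 min. 100% activation set by 100 μM cGAMP, baseline by DMSO.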

[2] = tested on: NF-κB pathway, THP1-Dual™ cells; experiment: STING reporter assay in THP1-Dual cells, NF-κB pathway (SEAP, QUANTI-Blue); assay type: cell-based, human; conditions: read-out: NFkB (EC50 μM)
Procedure, shortened: as §1

[3] = THP1-Dual cells, 10% human plasma, 20 hours, Lucia luciferase, 100% activation = 100 μM cGAMP
[4] = THP1-Dual cells, 10% human plasma, 20 hours, SEAP, 100% activation = 100 μM cGAMP
[5] = Homo sapiens, THP1-Dual, 20 h, THP1-Dual cells, 10% human plasma, 20 hours, Lucia luciferase, 100% activation = 100 μM cGAMP
[6] = Homo sapiens, THP1-Dual, 20 h, THP1-Dual cells, 10% human plasma, 20 hours, SEAP, 100% activation = 100 μM cGAMP

SMILES	EC50 [1, 3]	EC50 [2, 4]	EC50 [1, 5]	EC50 [2, 6]	also measured
CC(OC(=O)c1cc(C(F)(F)F)cc2cc(CNC(=O)c3cnn4cccnc34)oc12)C(F)(F)F (single isomer, unassigned) [EXAMPLE 349, 1,1,1-Trifluoropropan-2-yl 2-((pyrazolo[1,5-a]pyrimidine-3-carboxamido)methyl)-5-(trifluoromethyl)benzofuran-7-carboxylate]	3.8 µM	3.5 µM	–	–	–
C[C@H](NC(=O)c1cnn2cccnc12)c1cc2cc(F)cc(C(=O)SCC[Si](C)(C)C)c2o1 [EXAMPLE 398, S-(2-(Trimethylsilyl)ethyl) (S)-5-fluoro-2-(1-(pyrazolo[1,5-a]pyrimidine-3-carboxamido)ethyl)benzofuran-7-carbothioate]	–	–	–	–	EC50 ([1]; Homo sapiens, THP1-Dual, 20 h): 9.4 µM; EC50 ([2]; Homo sapiens, THP1-Dual, 20 h): 5.7 µM
CSC(=O)c1cc(Cl)cc2cc([C@H](C)NC(=O)c3cnn4cccnc34)oc12 [EXAMPLE 401]	–	–	1.9 µM	1.9 µM	–
CC(OC(=O)c1ccc(Cl)c2cc(CNC(=O)c3cnn4cccnc34)oc12)C(F)(F)F (centres unmarked) [EXAMPLE 312, 1,1,1-Trifluoropropan-2-yl 4-chloro-2-((pyrazolo[1,5-a]pyrimidine-3-carboxamido)methyl)benzofuran-7-carboxylate]	21 µM	56 µM	–	–	–
Cc1cc(C(=O)OC(CF)CF)c2oc(CNC(=O)c3cnn4cccnc34)c(Cl)c2c1 [EXAMPLE 302, 1,3-Difluoropropan-2-yl 3-chloro-5-methyl-2-((pyrazolo[1,5-a]pyrimidine-3-carboxamido)methyl)benzofuran-7-carboxylate]	–	–	0.43 µM	0.52 µM	–
C[C@H](NC(=O)c1cnn2cccnc12)c1oc2c(C(=O)OC3COC3)cc(Cl)cc2c1Cl [EXAMPLE 298, Oxetan-3-yl (S)-3,5-dichloro-2-(1-(pyrazolo[1,5-a]pyrimidine-3-carboxamido)ethyl)benzofuran-7-carboxylate]	–	–	3.6 µM	3.3 µM	–

Now from value to molecule, other results behind:

EC50 [1, 3]	EC50 [2, 4]	EC50 [1, 5]	EC50 [2, 6]	SMILES	also measured
–	–	19 µM	24 µM	COC(=O)c1cc(F)cc2cc(CN3Cc4ccncc4C3=O)oc12 [EXAMPLE 43, Methyl 5-fluoro-2-((3-oxo-1,3-dihydro-2H-pyrrolo[3,4-c]pyridin-2-yl)methyl)benzofuran-7-carboxylate]	–
1.4 µM	1.3 µM	–	–	CC(OC(=O)c1cc(F)cc2cc(CNC(=O)c3cnn4cccnc34)oc12)C(F)(F)F (single isomer, unassigned) [EXAMPLE 317, 1,1,1-Trifluoropropan-2-yl 5-fluoro-2-((pyrazolo[1,5-a]pyrimidine-3-carboxamido)methyl)benzofuran-7-carboxylate]	–
30 µM	> 33 µM	–	–	COC(=O)c1cc(Cl)cc2cc(CNC(=O)c3cnn4c(C)ccnc34)oc12 [Example 56, Methyl 5-chloro-2-((7-methylpyrazolo[1,5-a]pyrimidine-3-carboxamido)methyl) benzofuran-7-carboxylate]	–
–	–	1.1 µM	1 µM	O=C(OC(CF)CF)c1cc(Cl)cc2cc(CNC(=O)c3cnn4cccnc34)oc12 [EXAMPLE 246, 1,3-Difluoropropan-2-yl 5-chloro-2-((pyrazolo[1,5-a]pyrimidine-3-carboxamido)methyl)benzofuran-7-carboxylate]	–
–	–	13 µM	16 µM	CCOc1ncncc1C(=O)NCc1cc2cc(C)cc(C(=O)OC)c2o1 [Example 95, Methyl 2-((4-ethoxypyrimidine-5-carboxamido)methyl)-5-methylbenzofuran-7-carboxylate]	–
–	–	3 µM	3.1 µM	COC(=O)c1cc(Cl)cc2cc(CNC(=O)c3cncn(C)c3=O)oc12 [Example 65, Methyl 5-chloro-2-((1-methyl-6-oxo-1,6-dihydropyrimidine-5-carboxamido)methyl)benzofuran-7-carboxylate]	–
3.2 µM	2.3 µM	–	–	COc1cc(C(=O)OC(C)C(F)(F)F)c2oc(CNC(=O)c3cnn4cccnc34)cc2c1 (single isomer, unassigned) [EXAMPLE 346, 1,1,1-Trifluoropropan-2-yl 5-methoxy-2-((pyrazolo[1,5-a]pyrimidine-3-carboxamido)methyl)benzofuran-7-carboxylate]	–
